Experimental data published in ChEMBL document CHEMBL4842347, “Structure-activity relationship and biochemical evaluation of novel fibroblast activation protein and prolyl endopeptidase inhibitors with α-ketoamide warheads” (Eur J Med Chem, 2021).
Active and inactive are the calls of the source. The rule behind the calls is not given here.

How the values were obtained:
[1] = Metabolic stability in human plasma incubated for 2 hrs by LC/MS-MS analysis; assay type: ADME, cell-free
[2] = Drug degradation in mouse liver microsomes measured up to 1 min incubated for 2 hrs by LC/MS-MS analysis; assay type: ADME, Microsome
HL-60 = assay: Cytotoxicity against human HL-60 cells assessed as reduction in cell viability incubated for 72 hrs measured by […]-based colorimetric assay; assay type: functional
HepG2 = assay: Cytotoxicity against human HepG2 cells assessed as reduction in cell viability incubated for 72 hrs measured by […]-based colorimetric assay; assay type: functional
CCRF-CEM = assay: Cytotoxicity against human CCRF-CEM cells assessed as reduction in cell viability incubated for 72 hrs measured by […]-based colorimetric assay; assay type: functional
HeLa = assay: Cytotoxicity against human HeLa cells assessed as reduction in cell viability incubated for 72 hrs measured by […]-based colorimetric assay; assay type: functional
[3] = Drug degradation in human plasma measured up to 1 min incubated for 2 hrs by LC/MS-MS analysis; assay type: ADME, cell-free
[4] = Inhibition of PREP (unknown origin) using fluorogenic substrate by spectrometric assay; design: species or system Homo sapiens
Dipeptidyl peptidase 4 = Dipeptidyl peptidase 4 (Homo sapiens, UniProt P27487); assay: Inhibition of SF-tagged DPP4 (unknown origin) expressed in Drosophila S2 cells using fluorogenic substrate by spectrometric analysis; assay type: cell-based
Sequence of Dipeptidyl peptidase 4 (P27487 whole entry): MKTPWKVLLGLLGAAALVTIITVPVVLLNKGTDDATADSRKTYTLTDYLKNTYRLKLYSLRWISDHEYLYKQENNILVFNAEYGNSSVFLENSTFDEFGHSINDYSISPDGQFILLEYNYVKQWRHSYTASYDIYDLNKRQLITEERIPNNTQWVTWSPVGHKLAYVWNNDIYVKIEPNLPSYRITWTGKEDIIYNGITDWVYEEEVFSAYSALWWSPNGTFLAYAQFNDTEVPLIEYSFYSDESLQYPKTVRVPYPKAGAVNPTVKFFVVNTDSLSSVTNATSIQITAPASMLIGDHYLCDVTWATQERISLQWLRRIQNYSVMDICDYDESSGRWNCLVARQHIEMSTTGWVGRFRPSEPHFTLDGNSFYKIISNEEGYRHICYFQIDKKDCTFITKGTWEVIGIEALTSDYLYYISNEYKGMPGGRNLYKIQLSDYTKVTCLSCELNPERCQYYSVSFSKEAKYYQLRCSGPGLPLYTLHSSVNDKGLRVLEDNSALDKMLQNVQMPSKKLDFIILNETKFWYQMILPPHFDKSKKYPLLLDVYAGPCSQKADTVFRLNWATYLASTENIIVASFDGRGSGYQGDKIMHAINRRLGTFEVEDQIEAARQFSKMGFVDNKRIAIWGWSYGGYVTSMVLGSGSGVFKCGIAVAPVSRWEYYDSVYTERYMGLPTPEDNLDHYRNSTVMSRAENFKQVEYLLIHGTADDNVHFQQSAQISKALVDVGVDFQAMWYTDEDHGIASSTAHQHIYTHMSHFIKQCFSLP

SMILES	Stabilty [1]	Stabilty [2]	Activity (HL-60)	Activity (HepG2)	Activity (CCRF-CEM)	Activity (HeLa)	Stabilty [3]	IC50 [4] [nM]	IC50 (Dipeptidyl peptidase 4) [nM]
O=C(NCc1ccccc1)C(=O)[C@@H]1CCCN1C(=O)CNC(=O)c1ccnc2ccccc12	Stable	Unstable	inactive	inactive	inactive	inactive			
COC(=O)[C@H](CCC(=O)OCc1ccccc1)NC(=O)CNC(=O)C(=O)[C@@H]1CCCN1C(=O)CNC(=O)c1ccnc2ccccc12	Stable	Unstable	inactive	inactive	inactive	inactive	Unstable		
COc1ccc(CNC(=O)C(=O)[C@@H]2CCCN2C(=O)CNC(=O)c2ccnc3ccccc23)cc1OC	Stable		inactive	inactive	inactive	inactive		0.24	
COc1ccc(CCNC(=O)C(=O)[C@@H]2CCCN2C(=O)CNC(=O)c2ccnc3ccccc23)cc1OC	Stable	Unstable	inactive	inactive	inactive	inactive		0.43	
COC(=O)[C@H](Cc1ccccc1)NC(=O)CNC(=O)C(=O)[C@@H]1CCCN1C(=O)CNC(=O)c1ccnc2ccccc12	Stable	Unstable	inactive	inactive	inactive	inactive	Unstable	0.36	> 4000
